The results in this text go back to patent US20160183577A1, “Transglucosylated Rubus suavissimus Extract and Methods of Preparation and Use” (INTERNATIONAL FLAVORS & FRAGRANCES INC., priority 2014, published 2016).

This experiment in a line: Sensory evaluation of sweetness and mouthfeel of solutions in sucrose base solution (Example II). In kind it is in vivo. Particulars: in sucrose base solution (4% in water), sucrose 1.5%, Reb-A 30 ppm, sucralose 20 ppm, rubusoside 45 ppm, Preparations at total rubusoside 45 ppm; for Mouthfeel: averaged score of 0 to 10 (0=none, 1=barely detectable, 2=weak, 4=weak-moderate, 6=moderate, 8=moderate-strong, 10=extremely strong); for Sweetness: averaged score of 0 to 10 (0=none, 10=extremely strong). On the procedure: Isosweet solutions of sucrose (1.5%), rebaudioside A (“Reb-A”) (30 ppm), sucralose (20 ppm) and rubusoside (45 ppm) were prepared in a sucrose base solution (4% in water). Additional solutions of the transglucosylated R. suavissimus extract prepared with different rubusoside transglucosylation rates including Preparation I, II and III (prepared as above in EXAMPLE I) were also prepared, wherein the total rubusoside concentrations were equalized to 45 ppm.
Sweetness and mouthfeel of the obtained solutions were evaluated using a score of 0 to 10, where 0=none, 1=barely detectable, 2=weak, 4=weak-moderate, 6=moderate, 8=moderate-strong and 10=extremely strong.

Molecule `C=C1C[C@@]23CC[C@H]4[C@@](C)(CCC[C@@]4(C)C(=O)O[C@@H]4O[C@H](CO)[C@@H](O)[C@H](O)[C@H]4O)[C@@H]2CC[C@]1(O[C@@H]1O[C@H](CO)[C@@H](O)[C@H](O[C@@H]2O[C@H](CO)[C@@H](O)[C@H](O)[C@H]2O)[C@H]1O[C@@H]1O[C@H](CO)[C@@H](O)[C@H](O)[C@H]1O)C3` [Reb-A, rebaudioside A] had a Mouthfeel of 3 and a Sweetness of 5.
With `C=C1C[C@@]23CC[C@H]4[C@@](C)(CCC[C@@]4(C)C(=O)O[C@@H]4O[C@H](CO)[C@@H](O)[C@H](O)[C@H]4O)[C@@H]2CC[C@]1(O[C@@H]1O[C@H](CO)[C@@H](O)[C@H](O)[C@H]1O)C3` [Rubusoside, rubusoside], the Mouthfeel came to 4 and the Sweetness was 5.
For `OC[C@H]1O[C@H](O[C@]2(CCl)O[C@H](CCl)[C@@H](O)[C@@H]2O)[C@H](O)[C@@H](O)[C@H]1Cl` [Sucralose, sucralose] the same measures were 3 and 5.
`OC[C@H]1O[C@@](CO)(O[C@H]2O[C@H](CO)[C@@H](O)[C@H](O)[C@H]2O)[C@@H](O)[C@@H]1O` [Sucrose, sucrose]: the Mouthfeel is given as 7 and the Sweetness was 5.
